According to the supplement of paper PMC6045584:
± gives the standard deviation of the averaged measurements.

Key:
[1] = compound: C[C@H](CN(C)C)Oc1nc(Nc2cc3cccc(Cl)c3cn2)cnc1C#N; experiment: surviving fraction relative to DMSO-only wells; higher = less growth inhibition; conditions: exposure time: 5 days
Method in brief: (§1)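 Inhibitors were tested at 0.5, 1, 5, 10, 50, 100, 500 and 1000 nM, applied continuously for five days beginning 24 hours after log-phase tumour cells were seeded at 250–500 per well in 384-well plates. CellTiter-Glo luminescence served as the viability measure, expressed as surviving fraction against the median of DMSO-only wells. Each line, screened three times, was kept only with replicate Pearson r >0.7 and median Z' >0.3.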

BEZ-235 = compound: Cn1c(=O)n(-c2ccc(C(C)(C)C#N)cc2)c2c3cc(-c4cnc5ccccc5c4)ccc3ncc21 [BEZ-235]; experiment: as above; conditions: exposure time: 5 days
Method in brief: as §1

| Test System | surviving fraction ([1]; 0.5 nM) | surviving fraction ([1]; 1 nM) | surviving fraction ([1]; 5 nM) | surviving fraction ([1]; 10 nM) | surviving fraction ([1]; 50 nM) | surviving fraction ([1]; 100 nM) | surviving fraction ([1]; 500 nM) | surviving fraction ([1]; 1000 nM) | surviving fraction (BEZ-235; 0.5 nM) | surviving fraction (BEZ-235; 1 nM) | surviving fraction (BEZ-235; 5 nM) | surviving fraction (BEZ-235; 10 nM) | surviving fraction (BEZ-235; 50 nM) | surviving fraction (BEZ-235; 100 nM) | surviving fraction (BEZ-235; 500 nM) | surviving fraction (BEZ-235; 1000 nM) |
| --- | --- | --- | --- | --- | --- | --- | --- | --- | --- | --- | --- | --- | --- | --- | --- | --- |
| SUM149 BREAST | 1.04 ± 0.091 | 1.02 ± 0.083 | 0.988 ± 0.086 | 1.07 ± 0.017 | 0.903 ± 0.07 | 0.836 ± 0.024 | 0.192 ± 0.0025 | 0.0843 ± 0.011 | 1.11 ± 0.11 | 1.15 ± 0.044 | 1.04 ± 0.018 | 1 ± 0.059 | 0.715 ± 0.04 | 0.587 ± 0.024 | 0.153 ± 0.0052 | 0.108 ± 0.011 |
| SUM149.B1*.S BREAST | 1.06 ± 0.066 | 1.06 ± 0.023 | 1.03 ± 0.055 | 1.09 ± 0.029 | 1.11 ± 0.029 | 1.05 ± 0.029 | 0.941 ± 0.026 | 0.492 ± 0.024 | 1.11 ± 0.041 | 1.12 ± 0.049 | 1.14 ± 0.038 | 1.12 ± 0.022 | 1.039 ± 0.0098 | 0.969 ± 0.072 | 0.376 ± 0.028 | 0.21 ± 0.0038 |
| SUM159 BREAST | 1.04 ± 0.038 | 1.06 ± 0.034 | 1.05 ± 0.03 | 1.05 ± 0.033 | 1.06 ± 0.024 | 1.05 ± 0.024 | 1.03 ± 0.02 | 0.986 ± 0.0078 | 1.11 ± 0.11 | 1.11 ± 0.099 | 1.1 ± 0.065 | 1.09 ± 0.069 | 0.922 ± 0.062 | 0.635 ± 0.065 | 0.228 ± 0.014 | 0.168 ± 0.015 |
| SYO1 SYNOVIAL | 0.955 ± 0.038 | 0.963 ± 0.015 | 0.969 ± 0.017 | 0.941 ± 0.023 | 0.97 ± 0.026 | 0.835 ± 0.015 | 0.34 ± 0.0094 | 0.197 ± 0.014 | 1.02 ± 0.036 | 0.973 ± 0.054 | 0.942 ± 0.065 | 0.96 ± 0.023 | 0.705 ± 0.04 | 0.457 ± 0.017 | 0.196 ± 0.011 | 0.117 ± 0.0081 |
| T47D BREAST | 1.02 ± 0.043 | 1.06 ± 0.044 | 1.04 ± 0.027 | 1.03 ± 0.032 | 1.1 ± 0.046 | 1.14 ± 0.029 | 0.919 ± 0.063 | 0.766 ± 0.024 | 1.07 ± 0.034 | 1.05 ± 0.015 | 1.04 ± 0.019 | 1.02 ± 0.016 | 0.89 ± 0.015 | 0.7209 ± 0.0056 | 0.47 ± 0.016 | 0.312 ± 0.0077 |
| U2OS BONE | 1.04 ± 0.053 | 1 ± 0.039 | 1.02 ± 0.027 | 0.993 ± 0.081 | 1.05 ± 0.043 | 1.03 ± 0.025 | 0.277 ± 0.028 | 0.159 ± 0.013 | 1.03 ± 0.049 | 1.058 ± 0.0092 | 1.06 ± 0.011 | 1.06 ± 0.013 | 0.9133 ± 0.0045 | 0.78 ± 0.038 | 0.293 ± 0.006 | 0.256 ± 0.013 |
| VCAP PROSTATE | 0.969 ± 0.098 | 1.03 ± 0.14 | 1.1 ± 0.11 | 1.08 ± 0.11 | 1.12 ± 0.033 | 1.01 ± 0.16 | 0.715 ± 0.12 | 0.35 ± 0.039 | 1.08 ± 0.1 | 0.994 ± 0.09 | 1.12 ± 0.082 | 1.13 ± 0.12 | 0.902 ± 0.1 | 0.867 ± 0.056 | 0.422 ± 0.053 | 0.402 ± 0.0052 |
| VP229 BREAST | 0.984 ± 0.1 | 1.02 ± 0.056 | 1.1 ± 0.12 | 1.04 ± 0.14 | 1.05 ± 0.096 | 1.09 ± 0.042 | 1.04 ± 0.086 | 0.86 ± 0.028 | 1.36 ± 0.32 | 1.22 ± 0.075 | 1.25 ± 0.089 | 1.04 ± 0.035 | 0.969 ± 0.094 | 0.751 ± 0.025 | 0.268 ± 0.008 | 0.159 ± 0.008 |
| YAMATO SYNOVIAL | 1.12 ± 0.038 | 1.24 ± 0.086 | 1.17 ± 0.05 | 1.2 ± 0.13 | 1.18 ± 0.067 | 1.18 ± 0.037 | 0.806 ± 0.052 | 0.622 ± 0.074 | 1.28 ± 0.087 | 1.26 ± 0.12 | 1.34 ± 0.084 | 1.12 ± 0.048 | 0.923 ± 0.043 | 0.849 ± 0.12 | 0.47 ± 0.038 | 0.429 ± 0.016 |
| ZR751 BREAST | 1.07 ± 0.13 | 1.07 ± 0.085 | 1.08 ± 0.17 | 0.991 ± 0.078 | 0.867 ± 0.13 | 0.909 ± 0.15 | 0.543 ± 0.082 | 0.587 ± 0.042 | 1.03 ± 0.1 | 1.03 ± 0.23 | 0.912 ± 0.12 | 0.907 ± 0.093 | 0.725 ± 0.063 | 0.519 ± 0.1 | 0.226 ± 0.011 | 0.176 ± 0.011 |
